In PubChem BioAssay (NCI):
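GI50 = concentration required for 50% inhibition of growth. TGI is the concentration that stops growth completely.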

Key:
Assay in all cases: NCI-60 cell line screen, 384-well format
786-0 renal = system: 786-0 renal
A498 renal = system: A498 renal
A549 NSCLC = system: A549 NSCLC
ACHN renal = system: ACHN renal
BT-549 breast = system: BT-549 breast
CAKI-1 renal = system: CAKI-1 renal
CCRF-CEM leukemia = system: CCRF-CEM leukemia
COLO 205 colon = system: COLO 205 colon
DU-145 prostate = system: DU-145 prostate
HCC-2998 colon = system: HCC-2998 colon
HCT-116 colon = system: HCT-116 colon
HCT-15 colon = system: HCT-15 colon
HL-60(TB) leukemia = system: HL-60(TB) leukemia
HOP-62 NSCLC = system: HOP-62 NSCLC
HOP-92 NSCLC = system: HOP-92 NSCLC
HT29 colon = system: HT29 colon
IGROV1 ovarian = system: IGROV1 ovarian
K-562 leukemia = system: K-562 leukemia
KM12 colon = system: KM12 colon
LOX IMVI melanoma = system: LOX IMVI melanoma
M14 melanoma = system: M14 melanoma
MCF7 breast = system: MCF7 breast
MDA-MB-231 breast = system: MDA-MB-231 breast
MDA-MB-435 melanoma = system: MDA-MB-435 melanoma
MDA-MB-468 breast = system: MDA-MB-468 breast
MOLT-4 leukemia = system: MOLT-4 leukemia
NCI-H226 lung = system: NCI-H226 lung
NCI-H23 lung = system: NCI-H23 lung

CNC(C)C(=O)N[C@H](C(=O)N1CCC[C@@H]1CN(CCc1ccccc1)C(=O)C(F)(F)F)[C@H](C)OCC#CC#CCO[C@H](C)[C@H](NC(=O)[C@H](C)NC)C(=O)N1CCC[C@H]1CN(CCc1ccccc1)C(=O)C(F)(F)F (stereo partly specified)
GI50 ([…]-0 renal): 1760 nM
TGI (786-0 renal): 3160 nM
GI50 (A498 renal): 2070 nM
TGI (A498 renal): 4560 nM
GI50 (A549 NSCLC): 3320 nM
TGI (A549 NSCLC): 17200 nM
GI50 (ACHN renal): > 100000 nM
TGI (ACHN renal): > 100000 nM
GI50 (BT-549 breast): < 10 nM
TGI (BT-549 breast): 2160 nM
GI50 (CAKI-1 renal): 6020 nM
TGI (CAKI-1 renal): 17700 nM
GI50 (CCRF-CEM leukemia): 25.3 nM
TGI (CCRF-CEM leukemia): 1430 nM
GI50 (COLO 205 colon): 1690 nM
TGI (COLO 205 colon): 3080 nM
GI50 (DU-145 prostate): 1740 nM
TGI (DU-145 prostate): 5180 nM
GI50 (HCC-2998 colon): 1310 nM
TGI (HCC-2998 colon): 2620 nM
GI50 (HCT-116 colon): 1920 nM
TGI (HCT-116 colon): 3350 nM
GI50 (HCT-15 colon): 21300 nM
TGI (HCT-15 colon): > 100000 nM
GI50 (HL-60(TB) leukemia): < 10 nM
TGI (HL-60(TB) leukemia): < 10 nM
GI50 (HOP-62 NSCLC): 906 nM
TGI (HOP-62 NSCLC): 2190 nM
GI50 (HOP-92 NSCLC): 310 nM
TGI (HOP-92 NSCLC): 1780 nM
GI50 (HT29 colon): 1690 nM
TGI (HT29 colon): 3100 nM
GI50 (IGROV1 ovarian): 5720 nM
TGI (IGROV1 ovarian): 83400 nM
GI50 (K-562 leukemia): 1810 nM
TGI (K-562 leukemia): 3230 nM
GI50 (KM12 colon): 1720 nM
TGI (KM12 colon): 3130 nM
GI50 (LOX IMVI melanoma): 2060 nM
TGI (LOX IMVI melanoma): 3510 nM
GI50 (M14 melanoma): 1800 nM
TGI (M14 melanoma): 3210 nM
GI50 (MCF7 breast): 1300 nM
TGI (MCF7 breast): 2590 nM
GI50 (MDA-MB-231 breast): < 10 nM
TGI (MDA-MB-231 breast): < 10 nM
GI50 (MDA-MB-435 melanoma): 98.1 nM
TGI (MDA-MB-435 melanoma): 1940 nM
GI50 (MDA-MB-468 breast): < 10 nM
TGI (MDA-MB-468 breast): 78.5 nM
GI50 (MOLT-4 leukemia): 1630 nM
TGI (MOLT-4 leukemia): 2990 nM
GI50 (NCI-H226 lung): 3390 nM
TGI (NCI-H226 lung): 16700 nM
GI50 (NCI-H23 lung): 268 nM
TGI (NCI-H23 lung): 7590 nM
